The test system of data set [1] is coagulation behavior of blood. Nature of the data set: clotting time of patients dialysed with citric acid dialysate. Type of data set: in vivo. Conditions: 2.4 mEq/L of citric acid in dialysate; beyond that achieved with heparin.

Read-outs that look alike come from different tables or passages of the source.

Take `O=C(O)CC(O)(CC(=O)O)C(=O)O` [citric acid, Citric acid]: in data set [1], the “increase in patient's clotting time” value is “no measurable increase”.
On to `CC(=O)[O-].[Na+]` [sodium acetate], for which the buffering action entry was “evident” (bicarbonate concentrate solutions of 8.1<pH<8.3) and “not apparent” (bicarbonate concentrate solutions with a pH of <8.0).

The record behind these values is patent US9216247B2, “Buffered compositions for dialysis” (Advanced Renal Technologies, priority 1998, dated 2015).
